These results are taken from patent publication US10752900B2, “Oligonucleotides for modulating gene expression and uses thereof” (BIOGENERA S.P.A., priority 2012, dated 2020).

What all share (format): cell-based, human
Data set [1] concerns MYCN gene. In words: QT-PCR, MYCN mRNA in RH30 cells. The conditions noted are these: Table 9, siRNA and siRNA gapmer used at 200 nM with Lipofectamine 2000. The procedure: For the purpose of assessing the ability of the oligonucleotides of the present invention to modulate the expression of the target genes, their ability to reduce the quantity of messenger RNA was analyzed using the Real-Time PCR technique. For this purpose, use was made of 24-well plates, which were seeded with 5.0×10^4 cells with 0.3 ml of OPTI-MEM (GIBCO BRL) medium, 4% FBS and 2 mM L-glutammine (experiments in triplicate) per well. The cells were incubated for 24 hours at 37° C., in an atmosphere containing 5% CO2 to permit adherence to the base of the wells. Each oligonucleotide analyzed, except for the PNA oligonucleotides, was incubated beforehand with 2 μl of Lipofectamine 2000 (Invitrogen), with 0.3 mL of serum-free OPTI-MEM (GIBCO BRL) medium. For each well, the oligonucleotides were analyzed at the following final concentrations: • the antisense oligonucleotides siRNA and siRNA gapmer (i.e. the oligonucleotides containing one or more monomers of chemically modified nucleic acids at the 3' or 5' end, while in the central portion they have monomers of nucleic acids that have not been modified or have been modified at the level of the phosphodiester bond as a phosphorothioate bond) were used at 200 nM; • the antisense oligonucleotides containing phosphorothioate DNA monomers, the RNA antigene oligonucleotides (agRNA) and the oligonucleotides containing DNA monomers and LNA monomers were used at 10 μM; • the morpholino oligonucleotides were used at a concentration of 1 μM, and • the PNA oligonucleotides were administered at a concentration of 1 μM. The cells were treated with the oligonucleotides, adding FBS up to 4% 6 hours after administration of the same. After 24 hours the total RNA was extracted from each well and purified using the RNeasy Mini Kit (QIAGEN). Assays were performed on 8 cell lines obtained from 5 different human tumours which are correlated with MYCN expression, i.e.: • as a neuroblastoma model use was made of the cell lines Kelly, IMR-32 (where the MYCN gene is amplified and superexpressed) and SKNBE2c and LAN1 (where the MYCN gene is amplified and superexpressed and the p53 gene is mutated); • as a rabdomiosarcoma model use was made of the cell line RH30, where the MYCN gene is amplified and superexpressed; • as a Wilms' tumour model use was made of the cell line WiT49, where the MYCN gene is amplified and superexpressed; • as a retinoblastoma model use was made of the cell line Y79, where the MYCN gene is amplified and superexpressed; and • as a model of small cell lung cancer use was made of the cell line H69 where the MYCN gene is amplified and superexpressed. As a control, use was made of the same cell lines as listed above treated with sterile water instead of oligonucleotides. Each RNA sample was quantified (in duplicate) using a NanoDrop ND-1000 spectrophotometer (NanoDrop Technologies). The first strand of cDNA was produced using the cDNA Synthesis Kit for RT-PCR (Roche). For the cDNA synthesis reaction a total of 1 μg of RNA was used. For the real-time PCR, 10 ng of cDNA in a final volume of 20 μl was used with SYBR Green Master Mix 2× (Applied Biosystems) (3 identical experiments were conducted in triplicate). Two housekeeping genes were used as positive controls: GAPDH and beta-actin (ACTB). The conditions of the QT-PCR reaction were: 10 min at 95° C., 20 sec at 95° C., and 30 sec at 60° C., for 50 cycles. The PNAs having SEQ ID NO: 1-12 were also tested on different cell lines which overexpress MYCN (Kelly, SKNBE2c, RH30, […] 1 and H69). The results are shown in Table 6 and confirm the selectivity and specificity of the inhibition effect of the PNAs on the product of protein translation of the MYCN gene. Chimeric oligonucleotides comprising DNA monomers and LNA monomers and having the MYCN gene as their target were tested in vitro on alveolar rabdomyosarcoma cells (RH30). […]

The subject of data set [2] is rabdomyosarcoma cells (RH30). In words: Cellular proliferation assay (ATP-Lite), RH30 cells. The conditions noted are these: Table 9, siRNA and siRNA gapmer used at 200 nM. The procedure:
For the purpose of assessing the gene modulation ability of the oligonucleotides of the present invention, the effect of their administration on cell viability was determined. For this purpose 5×10^3 cells per well were seeded into 96-well cell culture plates (experiments conducted in triplicate) with 100 μl of OPTI-MEM (GIBCO BRL) medium containing 4% FBS and 2 mM of L-glutammine. The PNA oligonucleotides were administered at different concentrations (1 μM-2.5 μM-5 μM-10 μM) in order to observe a dose-effect relationship. As regards all the other oligonucleotides, the concentrations at which they administered are listed in the paragraph: The viability of the treated cells was determined at 48, 72, 96 and 168 hours after treatment. Cell viability was assessed by means of an ATP-Lite assay (Luminescence ATP Detection Assay System, PerkinElmer) and is reported as the ratio between the average signal of the treated wells compared to the average value of the wells of untreated control cells. The cells were processed following the instructions provided with the kit. The assays were performed on the same cell lines used to determine the levels of the MYCN gene messenger and listed in the paragraph: Treatments with Oligonucleotides-QT-PCR. The PNAs having SEQ ID NO: 1-12 were also tested on different cell lines which overexpress MYCN (Kelly, SKNBE2c, RH30, […] 1 and H69). The results are shown in Table 6 and confirm the selectivity and specificity of the inhibition effect of the PNAs on the product of protein translation of the MYCN gene. Chimeric oligonucleotides comprising DNA monomers and LNA monomers and having the MYCN gene as their target were tested in vitro on alveolar rabdomyosarcoma cells (RH30). […] The antisense oligonucleotides designed and synthesized by the Applicant according to the parameters described in the present invention were analyzed in vitro on rabdomyosarcoma cells (RH30).

For data set [3], the system named is MYCN gene. The data set is described as follows: QT-PCR, MYCN mRNA in Kelly cells. The arrangement: mRNA Inhibition (%)(Kelly): concentration or dose not given beside the values. As to conditions: for mRNA Inhibition (%)(Kelly): Table 7, SEQ ID NO: 5 and guanine-group mutants. Here is the method:
For the purpose of assessing the ability of the oligonucleotides of the present invention to modulate the expression of the target genes, their ability to reduce the quantity of messenger RNA was analyzed using the Real-Time PCR technique.
For this purpose, use was made of 24-well plates, which were seeded with 5.0×10^4 cells with 0.3 ml of OPTI-MEM (GIBCO BRL) medium, 4% FBS and 2 mM L-glutammine (experiments in triplicate) per well.
The cells were incubated for 24 hours at 37° C., in an atmosphere containing 5% CO2 to permit adherence to the base of the wells.
Each oligonucleotide analyzed, except for the PNA oligonucleotides, was incubated beforehand with 2 μl of Lipofectamine 2000 (Invitrogen), with 0.3 mL of serum-free OPTI-MEM (GIBCO BRL) medium.
For each well, the oligonucleotides were analyzed at the following final concentrations: • the antisense oligonucleotides siRNA and siRNA gapmer (i.e. the oligonucleotides containing one or more monomers of chemically modified nucleic acids at the 3′ or 5′ end, while in the central portion they have monomers of nucleic acids that have not been modified or have been modified at the level of the phosphodiester bond as a phosphorothioate bond) were used at 200 nM; • the antisense oligonucleotides containing phosphorothioate DNA monomers, the RNA antigene oligonucleotides (agRNA) and the oligonucleotides containing DNA monomers and LNA monomers were used at 10 μM; • the morpholino oligonucleotides were used at a concentration of 1 μM, and • the PNA oligonucleotides were administered at a concentration of 1 μM.
The cells were treated with the oligonucleotides, adding FBS up to 4% 6 hours after administration of the same. After 24 hours the total RNA was extracted from each well and purified using the RNeasy Mini Kit (QIAGEN).
Assays were performed on 8 cell lines obtained from 5 different human tumours which are correlated with MYCN expression, i.e.: • as a neuroblastoma model use was made of the cell lines Kelly, IMR-32 (where the MYCN gene is amplified and superexpressed) and SKNBE2c and LAN1 (where the MYCN gene is amplified and superexpressed and the p53 gene is mutated); • as a rabdomiosarcoma model use was made of the cell line RH30, where the MYCN gene is amplified and superexpressed; • as a Wilms' tumour model use was made of the cell line WiT49, where the MYCN gene is amplified and superexpressed; • as a retinoblastoma model use was made of the cell line Y79, where the MYCN gene is amplified and superexpressed; and • as a model of small cell lung cancer use was made of the cell line H69 where the MYCN gene is amplified and superexpressed.
As a control, use was made of the same cell lines as listed above treated with sterile water instead of oligonucleotides. Each RNA sample was quantified (in duplicate) using a NanoDrop ND-1000 spectrophotometer (NanoDrop Technologies). The first strand of cDNA was produced using the cDNA Synthesis Kit for RT-PCR (Roche). For the cDNA synthesis reaction a total of 1 μg of RNA was used. For the real-time PCR, 10 ng of cDNA in a final volume of 20 μl was used with SYBR Green Master Mix 2× (Applied Biosystems) (3 identical experiments were conducted in triplicate). Two housekeeping genes were used as positive controls: GAPDH and beta-actin (ACTB).
The conditions of the QT-PCR reaction were: 10 min at 95° C., 20 sec at 95° C., and 30 sec at 60° C., for 50 cycles.
(§1) As far as the PNA oligonucleotides are concerned, the results regarding their ability to inhibit the transcription of the MYCN gene and proliferation of Kelly cells are shown in Table 1.
The oligonucleotides were tested in vitro (at a concentration of 2.5 μM) to determine their ability to inhibit the transcription of the gene they are directed against by measuring the levels of the gene messenger in cellular models in which the gene of interest is overexpressed. The methods used are the ones described in example 1. […]

For another data set, the system named is Kelly cells. In words: Cellular proliferation assay (ATP-Lite), Kelly cells. The conditions noted are these: Table 7, SEQ ID NO: 5 and guanine-group mutants. Here is the method:
For the purpose of assessing the gene modulation ability of the oligonucleotides of the present invention, the effect of their administration on cell viability was determined.
For this purpose 5×10^3 cells per well were seeded into 96-well cell culture plates (experiments conducted in triplicate) with 100 μl of OPTI-MEM (GIBCO BRL) medium containing 4% FBS and 2 mM of L-glutammine.
The PNA oligonucleotides were administered at different concentrations (1 μM-2.5 μM-5 μM-10 μM) in order to observe a dose-effect relationship.
As regards all the other oligonucleotides, the concentrations at which they administered are listed in the paragraph:
The viability of the treated cells was determined at 48, 72, 96 and 168 hours after treatment.
Cell viability was assessed by means of an ATP-Lite assay (Luminescence ATP Detection Assay System, PerkinElmer) and is reported as the ratio between the average signal of the treated wells compared to the average value of the wells of untreated control cells. The cells were processed following the instructions provided with the kit.
The assays were performed on the same cell lines used to determine the levels of the MYCN gene messenger and listed in the paragraph: Treatments with Oligonucleotides—QT-PCR.
as §1
The ability of the tested oligonucleotides to inhibit the messenger of the gene of interest was measured and the proliferative capacity of the cells following administration of the oligonucleotides was also assessed.

For “SEQ ID NO: 35: double-stranded chimeric RNA / LNA siRNA against MYCN, sense GAGGAAGAUGAAGAGGAAGTT, antisense SEQ ID NO: 64 (antisense CUUCCUCUUCAUCUUCCUCTT; RNA with some LNA monomers, positions not given here)”, in the data set with MYCN gene [1], the “mRNA inhibition (%)” value is given as 34%. The “Cell Prolif. (%)” value in data set [2] came out at 68%.

On to “SEQ ID NO: 33: double-stranded chimeric RNA / 2′O-Methyl siRNA against MYCN, sense GAGGAAGAUGAAGAGGAAGTT, antisense SEQ ID NO: 62 (antisense CUUCCUCUUCAUCUUCCUCTT; RNA with some 2'-O-methyl monomers, positions not given here)”, for which the “mRNA inhibition (%)” value in the data set on MYCN gene [1] was determined as 13%. For the same substance, the “Cell Prolif. (%)” value in data set [2] was 85%.

In the case of “SEQ ID NO: 46: PNA GTTGGGTGGATGTGGG, modified SEQ ID NO: 5 (all peptide nucleic acid (PNA); antigene PNA, 3' carrier peptide conjugation not given here per molecule)”, in the data set with MYCN gene [3], the “mRNA Inhibition (%)(Kelly)” value is listed as 58%. In addition, the “(Kelly) Cell Prolif. %” value with Kelly cells is 60%.

In the case of “SEQ ID NO: 45: PNA GCTGGGTCGATGCGGG, modified SEQ ID NO: 5 with a group of consecutive guanines mutated (all peptide nucleic acid (PNA); antigene PNA, 3' carrier peptide conjugation not given here per molecule)”, the “mRNA Inhibition (%)(Kelly)” value in the data set with MYCN gene [3] was 47%. In addition, the “(Kelly) Cell Prolif. %” value in the data set on Kelly cells was 69%.

Consider “SEQ ID NO: 44: PNA GCTGAGTGGATGCGTG, modified SEQ ID NO: 5 with groups of consecutive guanines mutated (all peptide nucleic acid (PNA); antigene PNA, 3' carrier peptide conjugation not given here per molecule)”, for which the “mRNA Inhibition (%)(Kelly)” value in the data set on MYCN gene [3] came out at 25%. The “(Kelly) Cell Prolif. %” value in the data set with Kelly cells is recorded as 89%.

For the substance “SEQ ID NO: 43: PNA GCTGAGTCGATGCGTG, SEQ ID NO: 5 with all groups of consecutive guanines mutated (all peptide nucleic acid (PNA); antigene PNA, 3' carrier peptide conjugation not given here per molecule)”, in the data set on MYCN gene [3], the “mRNA Inhibition (%)(Kelly)” value came out at 0%. Also, the “inhibitory activity” value in the data set on MYCN gene [3] (all groups of consecutive guanines of SEQ ID NO: 5 mutated) is “inhibitory activity of the PNAs to be lost”. The “(Kelly) Cell Prolif. %” value with Kelly cells is given as 100%.
